{"source": "patent US9353107B2", "about": "(Aurigene Discovery Technologies Limited, priority 2012, dated 2016)", "biological_target": "T1, recombinant human ALK enzyme (ALK WT) (Homo sapiens, UniProt Q9UM73)", "T1 construct": "purchased Carna Biosciences 08-518", "T1 sequence (Q9UM73 1058-1620 limits assumed)": "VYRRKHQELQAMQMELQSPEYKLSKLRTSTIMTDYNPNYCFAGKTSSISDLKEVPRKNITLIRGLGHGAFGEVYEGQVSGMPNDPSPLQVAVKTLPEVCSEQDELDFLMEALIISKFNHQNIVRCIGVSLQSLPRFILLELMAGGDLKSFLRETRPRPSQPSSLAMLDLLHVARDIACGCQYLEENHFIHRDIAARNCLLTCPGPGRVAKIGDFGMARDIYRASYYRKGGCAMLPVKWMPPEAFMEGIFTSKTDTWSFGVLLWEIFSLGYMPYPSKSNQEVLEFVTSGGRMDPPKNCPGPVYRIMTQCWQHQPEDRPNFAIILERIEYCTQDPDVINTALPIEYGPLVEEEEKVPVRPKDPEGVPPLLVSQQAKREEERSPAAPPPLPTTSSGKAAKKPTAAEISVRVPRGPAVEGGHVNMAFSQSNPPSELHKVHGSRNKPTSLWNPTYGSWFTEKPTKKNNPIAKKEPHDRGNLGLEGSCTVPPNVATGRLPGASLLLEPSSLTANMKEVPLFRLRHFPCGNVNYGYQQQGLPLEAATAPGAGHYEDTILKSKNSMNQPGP", "assay": "ALK WT cell free enzymatic assay (TR-FRET)", "format": "biochemical", "details": "1 μM ATP", "method_in_brief": "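Recombinant human ALK with 40 nM Ultra Light Poly GT, 1 μM ATP and Eu anti-phosphotyrosine antibody, 1% DMSO, pH 7.1 HEPES; 30 min enzyme-compound pre-incubation, then 30 min reaction. TR-FRET 665/615 ratio; percent inhibition at 100 nM and 1 μM, IC50 from 10-point sigmoidal fit.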", "data": [{"smiles": "Cc1nn(Cc2cccc(F)c2)c(C)c1-c1c[nH]c2ncc(-c3cccc(N4CCN(CCO)CC4)c3)cc12", "note": "[Example 186, 2-(4-(3-(3-(1-(3-fluorobenzyl)-3,5-dimethyl-1H-pyrazol-4-yl)-1H-pyrrolo[2,3-b]pyridin-5-yl)phenyl)piperazin-1-yl)ethanol]", "values": [{"measurement": "IC50", "setting": "10 point dose response", "result": "< 50", "unit": "nM"}, {"measurement": "inhibition at 0.1 µM", "setting": "compound at 100 nM, 30 min pre-incubation", "result": 83, "unit": "%"}, {"measurement": "inhibition at 1 µM", "setting": "compound at 1 μM, 30 min pre-incubation", "result": 96, "unit": "%"}]}]}
